Measurements from patent US20040268437A1, “Method for biosynthesizing the serotonin derivatives in plants” (CHONNAM NATIONAL UNIVERSITY, priority 2003, published 2004).
Entries after “also recorded” stand apart in the source; their conditions may differ.

Legend:
[1] = tested on: Hot pepper (Variety: Pungcheon); assay: Serotonin sprayed on hot pepper sarcocarps; serotonin derivative content by HPLC; type: in vivo
Description: Hot pepper (Variety: Pungcheon) was treated with serotonin to investigate biosynthesis of serotonin derivatives.
Serotonin solution (prepared by dissolving serotonin in water to make 1 mM concentration) was sprayed on sarcocarps of hot pepper at the rate of 10,000 L/ha. 72 hours after spraying, sarcocarps were taken to investigate the content of serotonin derivatives, for which the same method in the Example 1 was used. Sarcocarps of hot pepper not treated with serotonin were used as a control.

hot pepper THT enzyme = assay: In vitro enzyme reaction of purified hot pepper THT with serotonin, product by HPLC; type: biochemical, hot pepper (Capsicum annuum)
Description: In order to confirm whether hot pepper THT enzyme could use serotonin as an amine substrate, hot pepper THT protein, in which 6 histidines were attached on carboxy-terminal, was purified by affinity chromatography (Back et al., Plant Cell Physiol. 42, 475-481, 2001) and used for the experiment. Particularly, 1 μg of the purified hot pepper THT enzyme, 1 mM of feruloyl-CoA (Sigma-Aldrich, Korea) and 10 mM of serotonin (Sigma-Aldrich, Korea) were mixed together, followed by an enzyme reaction at 30° C. for 10 minutes. Upon completing the reaction, the reaction product was analyzed by HPLC.

[2] = sarcocarps of hot pepper, 1 mM serotonin sprayed, 10,000 L/ha, 72 hours

NCCc1c[nH]c2ccc(O)cc12 [Serotonin, serotonin]
Serotonin derivatives detected ([1]; sarcocarps of hot pepper treated with serotonin, in words): a large amount; also recorded: detected a lot | Content of serotonin derivatives: Coumaroyl Serotonin [1, 2]: 1538 ng/1 g sarcocarps | Content of serotonin derivatives: Feruloyl serotonin [1, 2]: 1028 ng/1 g sarcocarps | Content of serotonin derivatives: Total content [1, 2]: 2566 ng/1 g sarcocarps | Serotonin used as amine substrate, product feruloylserotonin (hot pepper THT enzyme; 1 μg THT, 1 mM feruloyl-CoA, 10 mM serotonin, 30° C., 10 minutes): uses serotonin as an amine substrate; also recorded: biosynthesis of feruloylserotonin was confirmed | Serotonin used as amine substrate, product coumaroylserotonin (hot pepper THT enzyme; coumaroyl-CoA and serotonin as substrates (not shown)): synthesized coumaroylserotonin; also recorded: biosynthesis of coumaroylserotonin by hot pepper THT enzyme was also confirmed
